The IC50 is the concentration needed to halve the response being measured. Read a high IC50 as weaker potency in that assay.

The assay has as its target T1, human TLR8 (Homo sapiens, UniProt Q9NR97).
T1 construct: host or cells: HEK-Blue cells
T1 sequence (Q9NR97 27-1041): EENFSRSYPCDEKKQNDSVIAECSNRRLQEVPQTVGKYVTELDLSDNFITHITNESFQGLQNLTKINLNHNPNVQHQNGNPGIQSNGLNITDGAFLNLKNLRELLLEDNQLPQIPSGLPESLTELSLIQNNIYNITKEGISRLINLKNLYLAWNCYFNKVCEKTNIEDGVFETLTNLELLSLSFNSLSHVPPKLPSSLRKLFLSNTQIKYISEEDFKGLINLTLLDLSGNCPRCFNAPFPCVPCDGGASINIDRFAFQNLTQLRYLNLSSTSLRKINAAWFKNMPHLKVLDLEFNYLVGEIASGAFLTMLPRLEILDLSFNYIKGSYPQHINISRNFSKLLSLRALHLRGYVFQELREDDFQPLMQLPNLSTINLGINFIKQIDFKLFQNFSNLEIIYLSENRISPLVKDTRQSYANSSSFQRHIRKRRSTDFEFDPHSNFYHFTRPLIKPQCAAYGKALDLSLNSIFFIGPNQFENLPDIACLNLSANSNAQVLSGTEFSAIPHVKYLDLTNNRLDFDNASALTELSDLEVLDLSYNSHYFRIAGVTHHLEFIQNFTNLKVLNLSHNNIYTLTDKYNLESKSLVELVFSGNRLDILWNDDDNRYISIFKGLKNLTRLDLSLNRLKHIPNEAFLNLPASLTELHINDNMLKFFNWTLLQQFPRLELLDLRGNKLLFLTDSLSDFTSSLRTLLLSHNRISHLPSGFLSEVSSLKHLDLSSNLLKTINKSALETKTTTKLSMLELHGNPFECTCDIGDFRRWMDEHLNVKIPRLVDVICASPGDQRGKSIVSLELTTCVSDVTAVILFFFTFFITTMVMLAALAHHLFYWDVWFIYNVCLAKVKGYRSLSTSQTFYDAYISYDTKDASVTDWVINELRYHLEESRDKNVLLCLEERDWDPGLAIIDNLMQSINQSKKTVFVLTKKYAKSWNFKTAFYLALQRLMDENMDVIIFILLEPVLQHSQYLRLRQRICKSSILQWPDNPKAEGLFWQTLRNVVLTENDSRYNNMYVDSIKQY
Briefly: TLR8 inhibition reporter assay (HEK-Blue SEAP). The format is cell-based. The settings on record: HEK-Blue cells overexpressing human TLR8, R848 15.9 μM, 22 hour incubation. An outline of the steps: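 Agonists used: gardiquimod 7.5 μM (TLR7), R848 15.9 μM (TLR8), ODN2006 5 nM (TLR9), added after 30 min room-temperature compound pre-treatment (0.05 nM–50 μM) of receptor-overexpressing HEK-Blue cells. SEAP reporter (NF-κB/AP-1 driven) read after 22 h at 37 °C; inhibition scaled between agonist+DMSO and reference-inhibitor wells.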
Take `CCCN1CCC[C@@H](n2c(=O)[nH]c3cc(-c4cc(OC)c5ncnn5c4)c(C(F)(F)F)cc32)C1` [Example 115, (R)-5-(8-methoxy-[1,2,4]triazolo[1,5-a]pyridin-6-yl)-1-(1-propylpiperidin-3-yl)-6-(trifluoromethyl)-1,3-dihydro-2H-benzo[d]imidazol-2-one]: the IC50 is 14.4 nM.
For the molecule `COc1cc(-c2cc3[nH]c(=O)n(C4CCN(C5COC5)CC4)c3cc2C(C)C)cn2ncnc12` [Example 157, 6-isopropyl-5-(8-methoxy-[1,2,4]triazolo[1,5-a]pyridin-6-yl)-1-(1-(oxetan-3-yl)piperidin-4-yl)-1,3-dihydro-2H-benzo[d]imidazol-2-one], the midpoint of inhibition, the IC50, lay at 5.42 nM.
The molecule `COc1cc(-c2cc3[nH]c(=O)n([C@H]4CCCN(C5CCOCC5)C4)c3cc2C(C)C)cn2ncnc12` [Example 124, (S)-6-isopropyl-5-(8-methoxy-[1,2,4]triazolo[1,5-a]pyridin-6-yl)-1-(1-(tetrahydro-2H-pyran-4-yl)piperidin-3-yl)-1,3-dihydro-2H-benzo[d]imidazol-2-one] returned an IC50 of 4.33 nM. This IC50 and that of the molecule before are within 1.5-fold of each other.
In the case of `CCc1cc2c(cc1-c1cc(OC)c3ncnn3c1)[nH]c(=O)n2[C@H]1CC[C@@H](NC2CCOCC2)CC1` [Example 166, 6-ethyl-5-(8-methoxy-[1,2,4]triazolo[1,5-a]pyridin-6-yl)-1-((1s,4s)-4-((tetrahydro-2H-pyran-4-yl)amino)cyclohexyl)-1,3-dihydro-2H-benzo[d]imidazol-2-one], the IC50 was 0.54 nM. This IC50 lies about 8-fold lower than the previous one.

The record behind these values is patent US12187723B2 (BRISTOL-MYERS SQUIBB COMPANY, priority 2019, dated 2025).
